# From ChEMBL document CHEMBL1201862, “PubChem BioAssay data set” (2004)
#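 Values below derive from 48-hour exposures of cells grown in 96-well plates, with endpoints linearly interpolated between the two concentrations bracketing the appropriate inhibition level. Abbreviation: GI50, concentration required for 50% inhibition of growth.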 Activity calls are given as the source filed them. Rule as the data show it: active = GI50 up to about 1.1 µM and inactive = higher.
# How the values were obtained:
# Test in all cases: growth of human tumour cells (NCI), 48 h
# [1] = system: MOLT-4
# [2] = system: Malme-3M
# [3] = system: MCF7
# [4] = system: EKVX
# [5] = system: RXF 393
# [6] = system: HOP-62
# [7] = system: M14
# [8] = system: A549
# [9] = system: KM12
# [10] = system: MDA-MB-231
# [11] = system: SR
# [12] = system: SF-295
# [13] = system: SF-268
# [14] = system: OVCAR-3
# [15] = system: SN12C
# [16] = system: T47D
# [17] = system: DU-145
# [18] = system: OVCAR-4
# [19] = system: Hs-578T
# [20] = system: COLO 205
# [21] = system: A498
# [22] = system: SK-OV-3
# [23] = system: LOX IMVI
# [24] = system: TK-10
# [25] = system: BT-549
# [26] = system: NCI-H522
# [27] = system: CCRF-CEM
# [28] = system: NCI-H226
# [29] = system: OVCAR-8
# [30] = system: SK-MEL-28
# [31] = system: SF-539
# [32] = system: U-251
# [33] = system: HL-60
# [34] = system: K562
# [35] = system: PC-3
# [36] = system: NCI-H23
# [37] = system: HCT-15
# [38] = system: NCI-H460
# [39] = system: RPMI-8226
# [40] = system: ACHN
# [41] = system: SW-620
# [42] = system: OVCAR-5
# [43] = system: MDA-MB-435
# [44] = system: HCC 2998
# [45] = system: HCT-116
# [46] = system: SNB-19
# [47] = system: CAKI-1
# [48] = system: 786-0
# [49] = system: SNB-75
# [50] = system: HOP-92
# [51] = system: UO-31
# [52] = system: UACC-62
# [53] = system: UACC-257
# [54] = system: HT-29
# [55] = system: NCI/ADR-RES
# [56] = system: SK-MEL-5
# [57] = system: SK-MEL-2
# [58] = system: IGROV-1
compound,measurement,setting,value
O=Cc1cc(O)c(O)c(/C=N/n2c3ccccc3c3ccccc32)c1,GI50,[1],2.54 µM (inactive)
same,GI50,[2],12.4 µM (inactive)
same,GI50,[3],0.64 µM (active)
same,GI50,[4],18.9 µM (inactive)
same,GI50,[5],5.57 µM (inactive)
same,GI50,[6],11.2 µM (inactive)
same,GI50,[7],6.1 µM (inactive)
same,GI50,[8],12.8 µM (inactive)
same,GI50,[9],7.76 µM (inactive)
same,GI50,[10],7.1 µM (inactive)
same,GI50,[11],2.84 µM (inactive)
same,GI50,[12],8.69 µM (inactive)
same,GI50,[13],3.98 µM (inactive)
same,GI50,[14],2.44 µM (inactive)
same,GI50,[15],4.56 µM (inactive)
same,GI50,[16],5.64 µM (inactive)
same,GI50,[17],11.4 µM (inactive)
same,GI50,[18],2.17 µM (inactive)
same,GI50,[19],19.3 µM (inactive)
same,GI50,[20],10.8 µM (inactive)
same,GI50,[21],15.9 µM (inactive)
same,GI50,[22],6.55 µM (inactive)
same,GI50,[23],8.49 µM (inactive)
same,GI50,[24],13.4 µM (inactive)
same,GI50,[25],2.31 µM (inactive)
same,GI50,[26],2.64 µM (inactive)
same,GI50,[27],1.58 µM (inactive)
same,GI50,[28],12.6 µM (inactive)
same,GI50,[29],2.63 µM (inactive)
same,GI50,[30],12.9 µM (inactive)
same,GI50,[31],6.38 µM (inactive)
same,GI50,[32],6.14 µM (inactive)
same,GI50,[33],2.33 µM (inactive)
same,GI50,[34],4.11 µM (inactive)
same,GI50,[35],10.1 µM (inactive)
same,GI50,[36],8.09 µM (inactive)
same,GI50,[37],2.18 µM
same,GI50,[38],6.03 µM (inactive)
same,GI50,[39],2.05 µM (inactive)
same,GI50,[40],4.25 µM (inactive)
same,GI50,[41],5.15 µM (inactive)
same,GI50,[42],17.9 µM (inactive)
same,GI50,[43],11.3 µM (inactive)
same,GI50,[44],11.7 µM (inactive)
same,GI50,[45],3.37 µM (inactive)
same,GI50,[46],8.61 µM (inactive)
same,GI50,[47],16.1 µM (inactive)
same,GI50,[48],4.41 µM (inactive)
same,GI50,[49],2.65 µM (inactive)
same,GI50,[50],2.72 µM (inactive)
same,GI50,[51],5.58 µM (inactive)
same,GI50,[52],7.83 µM (inactive)
same,GI50,[53],11.7 µM (inactive)
same,GI50,[54],18.7 µM (inactive)
Cc1c(/C=N/NC(=S)Nc2ccccc2)c(=O)n(-c2ccccc2)n1C,GI50,[1],> 100 µM (inactive)
same,GI50,[55],22.1 µM (inactive)
same,GI50,[3],> 100 µM (inactive)
same,GI50,[4],> 100 µM (inactive)
same,GI50,[56],> 100 µM (inactive)
same,GI50,[5],> 100 µM (inactive)
same,GI50,[6],> 100 µM (inactive)
same,GI50,[7],> 100 µM (inactive)
same,GI50,[9],> 100 µM (inactive)
same,GI50,[10],> 100 µM (inactive)
same,GI50,[11],> 100 µM (inactive)
same,GI50,[12],> 100 µM (inactive)
same,GI50,[13],> 100 µM (inactive)
same,GI50,[16],> 100 µM (inactive)
same,GI50,[17],> 100 µM (inactive)
same,GI50,[57],> 100 µM (inactive)
same,GI50,[18],> 100 µM (inactive)
same,GI50,[19],> 100 µM (inactive)
same,GI50,[20],> 100 µM (inactive)
same,GI50,[21],71.4 µM (inactive)
same,GI50,[22],> 100 µM (inactive)
same,GI50,[23],> 100 µM (inactive)
same,GI50,[24],> 100 µM (inactive)
same,GI50,[25],> 100 µM (inactive)
same,GI50,[27],48 µM (inactive)
same,GI50,[28],> 100 µM (inactive)
same,GI50,[29],> 100 µM (inactive)
same,GI50,[30],> 100 µM (inactive)
same,GI50,[31],> 100 µM (inactive)
same,GI50,[32],> 100 µM (inactive)
same,GI50,[33],> 100 µM (inactive)
same,GI50,[34],31.2 µM (inactive)
same,GI50,[35],> 100 µM (inactive)
same,GI50,[36],> 100 µM (inactive)
same,GI50,[37],47.5 µM
same,GI50,[38],> 100 µM (inactive)
same,GI50,[39],> 100 µM (inactive)
same,GI50,[40],> 100 µM (inactive)
same,GI50,[58],> 100 µM (inactive)
same,GI50,[41],> 100 µM (inactive)
same,GI50,[43],> 100 µM (inactive)
same,GI50,[44],> 100 µM (inactive)
same,GI50,[45],> 100 µM (inactive)
same,GI50,[46],> 100 µM (inactive)
same,GI50,[47],46.2 µM (inactive)
same,GI50,[48],> 100 µM (inactive)
same,GI50,[49],> 100 µM (inactive)
same,GI50,[50],> 100 µM (inactive)
same,GI50,[51],57.5 µM (inactive)
same,GI50,[52],> 100 µM (inactive)
same,GI50,[53],> 100 µM (inactive)
same,GI50,[54],> 100 µM (inactive)
